Experimental data published in the supplement of paper PMC6045584.
± gives the standard deviation of the averaged measurements.

Columns and labels:
CAMPTOTHECIN = compound: CC[C@@]1(O)C(=O)OCc2c1cc1n(c2=O)Cc2cc3ccccc3nc2-1 [CAMPTOTHECIN]; assay: area under dose-response curve of surviving fraction (unscaled, Aref=0) (surviving fraction x log10(nM)); higher = more resistant; settings: exposure time: 5 days; dose range 0.5-1000 nM
Procedure, shortened: (§1)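 Each tumour cell line was screened three times in 384-well plates, receiving eight inhibitor concentrations from 0.5 to 1000 nM for five days. CellTiter-Glo luminescence gave viability, normalised to DMSO-only wells. Using the drc R package, surviving fractions were fitted with 3-parameter logistic dose-response curves, and the unscaled activity area over log10 dose (Aref = 0) was taken as the area under the curve.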

CARBOPLATIN = compound: O=C(O)C1(C(=O)O)CCC1.[NH2-].[NH2-].[Pt+2] [CARBOPLATIN]; assay: as above; settings: exposure time: 5 days; dose range 0.5-1000 nM
Procedure, shortened: as §1

OSI-906 = compound: C[C@]1(O)C[C@@H](c2nc(-c3ccc4ccc(-c5ccccc5)nc4c3)c3c(N)nccn32)C1 [OSI-906]; assay: as above; settings: exposure time: 5 days; dose range 0.5-1000 nM
Procedure, shortened: as §1

[1] = compound: CC(=O)c1c(C)c2cnc(Nc3ccc(N4CCNCC4)cn3)nc2n(C2CCCC2)c1=O; assay: as above; settings: exposure time: 5 days; dose range 0.5-1000 nM
Procedure, shortened: as §1

GEFITINIB = compound: COc1cc2ncnc(Nc3ccc(F)c(Cl)c3)c2cc1OCCCN1CCOCC1 [GEFITINIB]; assay: as above; settings: exposure time: 5 days; dose range 0.5-1000 nM
Procedure, shortened: as §1

CELECOXIB [2] = compound: T1, Cc1ccc(-c2cc(C(F)(F)F)nn2-c2ccc(S(N)(=O)=O)cc2)cc1 [CELECOXIB]; assay: as above; settings: exposure time: 5 days; dose range 0.5-1000 nM
Procedure, shortened: as §1

PACLITAXEL = compound: CC(=O)O[C@H]1C(=O)[C@@]2(C)[C@H]([C@H](OC(=O)c3ccccc3)[C@]3(O)C[C@H](OC(=O)[C@H](O)[C@@H](NC(=O)c4ccccc4)c4ccccc4)C(C)=C1C3(C)C)[C@]1(OC(C)=O)CO[C@@H]1C[C@@H]2O [PACLITAXEL]; assay: as above; settings: exposure time: 5 days; dose range 0.5-1000 nM
Procedure, shortened: as §1

YM155 = compound: COCC[n+]1c2c(n(Cc3cnccn3)c1C)C(=O)c1ccccc1C2=O [YM155]; assay: as above; settings: exposure time: 5 days; dose range 0.5-1000 nM
Procedure, shortened: as §1

[3] = compound: CC(=O)NCC(=O)N1[C@@H]2CC[C@H]1c1ccc(Nc3ncc(C(F)(F)F)c(NC4CCC4)n3)cc12; assay: as above; settings: exposure time: 5 days; dose range 0.5-1000 nM
Procedure, shortened: as §1

CELECOXIB [4] = compound: T1, CELECOXIB; assay: surviving fraction relative to DMSO-only wells; higher = less growth inhibition; settings: exposure time: 5 days
Procedure, shortened: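 Viability was determined by CellTiter-Glo luminescence, expressed as surviving fraction normalised to the median of DMSO-only wells. The cells were log-phase tumour cell lines seeded at 250–500 per well in 384-well plates and, after 24 hours, exposed continuously for five days to inhibitors at 0.5, 1, 5, 10, 50, 100, 500 and 1000 nM. Three screens per line were run, keeping only lines with replicate Pearson r >0.7 and median Z' >0.3.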

Test System	area under dose-response curve (CAMPTOTHECIN)	area under dose-response curve (CARBOPLATIN)	area under dose-response curve (OSI-906)	area under dose-response curve [1]	area under dose-response curve (GEFITINIB)	area under dose-response curve (CELECOXIB [2])	area under dose-response curve (PACLITAXEL)	area under dose-response curve (YM155)	area under dose-response curve [3]	surviving fraction (CELECOXIB [4]; 0.5 nM)	surviving fraction (CELECOXIB [4]; 1 nM)	surviving fraction (CELECOXIB [4]; 5 nM)	surviving fraction (CELECOXIB [4]; 10 nM)	surviving fraction (CELECOXIB [4]; 50 nM)	surviving fraction (CELECOXIB [4]; 100 nM)	surviving fraction (CELECOXIB [4]; 500 nM)	surviving fraction (CELECOXIB [4]; 1000 nM)
SYO1 SYNOVIAL	0.528	3.25	2.64	3.14	3.17	3.18	0.539	1.25	1.98	0.952 ± 0.052	0.998 ± 0.055	0.985 ± 0.065	0.9986 ± 0.0091	0.974 ± 0.022	0.955 ± 0.043	0.975 ± 0.07	1.04 ± 0.061
COLO320DM LARGE INTESTINE	1.14	4.1	3	3.25	4.07	3.75	2.1	2.37	2.35	1.12 ± 0.18	1.12 ± 0.17	1.15 ± 0.075	1.12 ± 0.15	1.14 ± 0.043	1.15 ± 0.025	1.15 ± 0.074	1.13 ± 0.031
JIMT1 BREAST	1.8	3.31	3.15	3.35	3.29	3.51	0.48	1.39	2.96	1.04 ± 0.039	1.04 ± 0.023	1.06 ± 0.039	1.08 ± 0.051	1.04 ± 0.021	1.08 ± 0.015	1.08 ± 0.062	1.07 ± 0.024
SUM149 BREAST	–	3.13	2.61	3.23	2.81	3.68	0.407	1.31	2.36	1.1 ± 0.056	1.09 ± 0.021	1.2 ± 0.035	1.16 ± 0.057	1.08 ± 0.021	1.09 ± 0.13	1.06 ± 0.04	1.12 ± 0.13
93VU HEADNECK	1.8	4.03	2.69	3.72	2.74	3.54	1.04	2.62	2.61	1.02 ± 0.064	1.11 ± 0.076	1.1 ± 0.043	1.08 ± 0.16	1.03 ± 0.083	1.08 ± 0.15	1.08 ± 0.052	1.07 ± 0.086
CASKI CERVIX	1.07	3.19	2.98	3.41	2.15	3.15	0.492	1.37	2.28	0.944 ± 0.024	0.881 ± 0.056	0.952 ± 0.029	0.93 ± 0.055	1.01 ± 0.027	1 ± 0.051	0.933 ± 0.034	0.972 ± 0.11
A549 LUNG	1.62	3.54	3.1	3.48	3.46	3.51	1.32	1.83	2.54	1.04 ± 0.039	1.05 ± 0.025	1.05 ± 0.045	1.05 ± 0.029	1.08 ± 0.044	1.08 ± 0.045	1.11 ± 0.057	1.05 ± 0.044
